# Assays:
# Assay type in all cases: cell-based, human
# [1] = test system: glutathione synthetase (GS); test: ELISA of protein expression in LO2 cells: GS; conditions: 16 mM APAP, 600 μM, 48 h
# Method: (§1) The expression levels of glutamylcysteine synthetase (GCL), glutathione synthetase (GS), and 11β-hydroxysteroid dehydrogenase type 1 (11β-HSD1) in cells were quantified using commercially available enzyme-linked immunosorbent assay (ELISA) kits (Shanghai Aimeng Youning Biotechnology Co., Ltd., Shanghai, China). Cells in the logarithmic growth phase were seeded into 6-well plates at a density of 3 × 10^4 cells per well, pre-incubated for 24 h, and subsequently exposed to 16 mM APAP with concurrent administration of MONO, DIAM, and MAGN at a final concentration of 600 μM for 48 h. Following three PBS washes, cells were harvested using cell scrapers. Total protein content was determined by the Bradford assay, and samples were normalized to equivalent protein concentrations prior to quantitative analysis of target proteins according to the manufacturer’s protocols.
# [2] = test system: glutamylcysteine synthetase (GCL); test: ELISA of protein expression in LO2 cells: GCL; conditions: 16 mM APAP, 600 μM, 48 h
# Method: as §1
# LO2 cells = test: Cell metabolomics (UPLC-MS/MSe) of APAP-injured LO2 cells, differential metabolites DIAM vs MAGN; conditions: 600 μM, 48 h
# Method: LC-MS/MS analysis was conducted utilizing a Waters Acquity H UPLC system, interfaced with a Q-MS detector (Xevo G3 QTof, Waters, Milford, MA, USA). Chromatographic separation of metabolites was achieved on a BEH C18 Column (1.7 µm, 2.1 mm × 100 mm, Waters), maintained at a temperature of 40 °C. The injector sample chamber was maintained at 4 °C to ensure optimal sample handling. For positive ion analysis, the mobile phase comprised two solvents, 0.1% formic acid in water (solvent A) and acetonitrile (solvent B), delivered at a flow rate of 300 μL/min. The elution gradient was programmed as follows (acetonitrile percentage): 0–1 min 5%, 1–2 min 5–30%, 2–4 min 30–50%, 4–16 min 50–90%, 19–21 min 95%, 21–21.1 min 95–5%, and 21.1–23 min 5%. The capillary, sample cone, and source offset were set as 2.18 kV, 40, and 30. The temperatures of the source and desolvation were 100 and 600 °C. The gas flow of the cone gas and desolvation gas was set as 50 and 800 L/h. For the negative ion mode, the mobile phase consisted of 10 mM ammonium acetate (solvent A) and acetonitrile (solvent B), delivered at a flow rate of 300 μL/min. The elution gradient was programmed as follows: 0–1 min, 5%; 1–3 min, 5–80%; 3–4 min, 80–82%; 4–6 min, 82–88%; 6–25 min, 88–92%; 25–27 min, 92–95%; 27–27.1 min, 95–5%; 27.1–29 min, 5%. The mass spectrometry conditions were similar to those employed in the positive mode, with the exception of the capillary voltage, which was set to 2 kV. All samples were analyzed using an ESI source in MSe full scan mode, with a mass range spanning from m/z 50 to 2000 and a scan time of 0.5 s. Additionally, an automatic calibration system was employed to automatically adjust the MS and MSe parameters every 10 s.
# LO2 cells in the logarithmic growth phase were seeded into a 6-well plate at a density of 3 × 10^4 cells per well and incubated overnight under conditions of 37 °C and 5% CO2. Subsequently, varying concentrations of APAP were introduced, and MONO, DIAM, and MAGN were dissolved in the culture medium prior to their addition to the wells, ensuring a final concentration of 600 μM. The cells were then exposed to these samples for 48 h, following which the culture medium was discarded. The cells were rinsed with pre-cooled PBS at 4 °C and subsequently inactivated by the addition of 80% methanol maintained at a temperature below −20 °C. The cells were scraped off and homogenized using a cell disruptor for 3 min in an ice bath. The homogenized samples were centrifuged at 7500× g for 20 min at 4 °C, and the resultant supernatant was collected and dried using nitrogen gas. The dried samples were redissolved in 80% methanol at −20 °C, vortexed for 1 min, sonicated for 30 s, and then centrifuged again at 7500× g for 20 min at 4 °C. A total of 10 μL was allocated from each sample and mixed as a quality control (QC) sample, while 5 μL of the supernatant was subjected to UPLC-MS/MSe data acquisition on the instrument. The entire procedure was repeated in parallel for all samples, with a total of six replicates performed.
# Firstly, the raw data in the “.raw” format were imported into Progenesis QI software (Waters, Milford, MA, USA). This processing encompassed peak alignment, deconvolution, denoising, and other essential steps, resulting in the extraction of crucial information including retention time, charge-to-mass ratio, compound names, peak areas, and related parameters. To ensure data comparability and accuracy, each peak was then normalized against the total ion intensity, yielding a standardized matrix of retention time, peak area, and m/z values. […] Concurrently, the processed data were imported into SIMCA-P 14.0 software (Umetrics, Umeaa, Sweden) for advanced multivariate statistical analysis, encompassing principal component analysis (PCA) and supervised Orthogonal Partial Least Squares Discriminant Analysis (OPLS-DA). […]
# [3] = test system: 11β-hydroxysteroid dehydrogenase type 1 (11β-HSD1); test: ELISA of protein expression in LO2 cells: 11β-HSD1; conditions: 16 mM APAP, 600 μM, 48 h
# Method: as §1
smiles,measurement,setting,value
"CC1(C)[C@@H](O[C@H]2O[C@H](C(=O)O)[C@@H](O)[C@H](O)[C@H]2O[C@@H]2O[C@H](C(=O)O)[C@@H](O)[C@H](O)[C@H]2O)CC[C@]2(C)[C@H]3C(=O)C=C4[C@H]5C[C@@](C)(C(=O)O)CC[C@]5(C)CC[C@@]4(C)[C@]3(C)CC[C@@H]12 [MAGN, magnesium isoglycyrrhizinate]",GS expression,[1],remained comparable to DIAM-treated control
same,intracellular GCL levels,[2],significantly elevated
same,GSH-to-GSSG ratio,LO2 cells; MAGN compared to DIAM,stable
same,FC of Alpha-Cehc,LO2 cells; highest group MAGN vs DIAM,1.21
same,FC of Dioleoylphosphatidylserine,LO2 cells; highest group MAGN vs DIAM,1.92
same,FC of GSH,LO2 cells; highest group MAGN vs DIAM,1.24
same,FC of GSSG,LO2 cells; highest group MAGN vs DIAM,1.28
same,FC of Menaquinol-8,LO2 cells; highest group MAGN vs DIAM,1.68
same,FC of N-[(15Z)-tetracosenoyl]sphing-4-enine-1-phosphocholine,LO2 cells; highest group MAGN vs DIAM,2.55
same,FC of Solanidine,LO2 cells; highest group MAGN vs DIAM,1.32
"CC1(C)[C@@H](O[C@H]2O[C@H](C(=O)O)[C@@H](O)[C@H](O)[C@H]2O[C@@H]2O[C@H](C(=O)O)[C@@H](O)[C@H](O)[C@H]2O)CC[C@]2(C)[C@H]3C(=O)C=C4[C@@H]5C[C@@](C)(C(=O)O)CC[C@]5(C)CC[C@@]4(C)[C@]3(C)CC[C@@H]12 [DIAM, diammonium glycyrrhizinate]",11β-HSD1 expression,[3],most pronounced upregulation
same,FC of 3-(10Z)-10-Heptadecen-1-ylphenol,LO2 cells; highest group DIAM vs MAGN,1.68
same,FC of 7-Dehydrocholesterol benzoate,LO2 cells; highest group DIAM vs MAGN,>10
same,FC of 8-Demethyl meiqx,LO2 cells; highest group DIAM vs MAGN,1.92
same,FC of 25-Hydroxyvitamin D2,LO2 cells; highest group DIAM vs MAGN,3.85
same,FC of Ammonium glycyrrhizate,LO2 cells; highest group DIAM vs MAGN,2.12
same,FC of Argiotoxin 659,LO2 cells; highest group DIAM vs MAGN,2.98
same,FC of Butyroin,LO2 cells; highest group DIAM vs MAGN,1.23
same,FC of C14 Ceramide,LO2 cells; highest group DIAM vs MAGN,1.20
same,FC of C16 Lactosylceramide (d18:1/16:0),LO2 cells; highest group DIAM vs MAGN,1.24
same,FC of CETYL BENZOATE,LO2 cells; highest group DIAM vs MAGN,1.37
same,FC of Cerlapirdine,LO2 cells; highest group DIAM vs MAGN,>10
same,FC of Ergocryptine,LO2 cells; highest group DIAM vs MAGN,1.92
same,FC of Euscaphic acid,LO2 cells; highest group DIAM vs MAGN,4.79
same,FC of Floctafenine,LO2 cells; highest group DIAM vs MAGN,4.41
same,FC of Glabric acid,LO2 cells; highest group DIAM vs MAGN,>10
same,FC of Glycerol phenylbutyrate,LO2 cells; highest group DIAM vs MAGN,1.36
same,FC of Glycyrrhetaldehyde,LO2 cells; highest group DIAM vs MAGN,>10
same,FC of Glycyrrhizin,LO2 cells; highest group DIAM vs MAGN,1.24
same,FC of Gypsogenin,LO2 cells; highest group DIAM vs MAGN,1.79
same,FC of N-eicosanoylsphinganine,LO2 cells; highest group DIAM vs MAGN,2.07
same,FC of N-tetracosanoylsphinganine,LO2 cells; highest group DIAM vs MAGN,>10
same,FC of Onnamide A,LO2 cells; highest group DIAM vs MAGN,2.42
same,FC of Pinnatoxin G,LO2 cells; highest group DIAM vs MAGN,1.55
same,FC of Prednisolone sodium tetrahydrophthalic,LO2 cells; highest group DIAM vs MAGN,1.66
same,FC of Pristimerin,LO2 cells; highest group DIAM vs MAGN,1.26
same,FC of Propapyriogenin A2,LO2 cells; highest group DIAM vs MAGN,6.06
same,FC of Sampangine,LO2 cells; highest group DIAM vs MAGN,>10
same,FC of Sphingosine-1-phosphate (d16:1),LO2 cells; highest group DIAM vs MAGN,3.78
same,FC of Stanozolol,LO2 cells; highest group DIAM vs MAGN,1.81
same,FC of Testosterone ketolaurate,LO2 cells; highest group DIAM vs MAGN,1.67
same,FC of Tetrahydrospirilloxanthin,LO2 cells; highest group DIAM vs MAGN,1.29
same,FC of Tirilazad,LO2 cells; highest group DIAM vs MAGN,1.74
same,FC of Tisocalcitate,LO2 cells; highest group DIAM vs MAGN,1.39
same,FC of Trametenolic acid,LO2 cells; highest group DIAM vs MAGN,>10
same,FC of Varespladib,LO2 cells; highest group DIAM vs MAGN,1.71
